Source: PubChem BioAssay (NCI)
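96-well plates; 48 h exposure; 5 concentrations. Endpoints by linear interpolation between flanking doses. Not reached: highest tested concentration assigned. Definition used: TGI = concentration required for complete inhibition of growth.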

What was measured:
Assay in all cases: DTP human tumour cell line panel, 48 h
786-0 renal = system: 786-0 renal
A498 renal = system: A498 renal
A549 NSCLC = system: A549 NSCLC
ACHN renal = system: ACHN renal
BT-549 breast = system: BT-549 breast
CAKI-1 renal = system: CAKI-1 renal
CCRF-CEM leukemia = system: CCRF-CEM leukemia
COLO 205 colon = system: COLO 205 colon
DU-145 prostate = system: DU-145 prostate
EKVX NSCLC = system: EKVX NSCLC
HCC-2998 colon = system: HCC-2998 colon
HCT-15 colon = system: HCT-15 colon
HL-60(TB) leukemia = system: HL-60(TB) leukemia
HOP-92 NSCLC = system: HOP-92 NSCLC
HS 578T breast = system: HS 578T breast
IGROV1 ovarian = system: IGROV1 ovarian
K-562 leukemia = system: K-562 leukemia
KM12 colon = system: KM12 colon
LOX IMVI melanoma = system: LOX IMVI melanoma
M14 melanoma = system: M14 melanoma
MALME-3M melanoma = system: MALME-3M melanoma
MCF7 breast = system: MCF7 breast
MDA-MB-231 breast = system: MDA-MB-231 breast
MDA-MB-435 = system: MDA-MB-435
MDA-N = system: MDA-N
MOLT-4 leukemia = system: MOLT-4 leukemia
NCI-H226 lung = system: NCI-H226 lung
NCI-H460 lung = system: NCI-H460 lung
NCI-H522 lung = system: NCI-H522 lung
NCI/ADR-RES ovarian = system: NCI/ADR-RES ovarian
OVCAR-3 ovarian = system: OVCAR-3 ovarian
OVCAR-4 ovarian = system: OVCAR-4 ovarian
OVCAR-5 ovarian = system: OVCAR-5 ovarian
OVCAR-8 ovarian = system: OVCAR-8 ovarian
PC-3 prostate = system: PC-3 prostate
RPMI-8226 leukemia = system: RPMI-8226 leukemia
RXF 393 renal = system: RXF 393 renal
SF-268 CNS = system: SF-268 CNS
SF-295 CNS = system: SF-295 CNS
SF-539 CNS = system: SF-539 CNS
SK-MEL-28 melanoma = system: SK-MEL-28 melanoma
SK-MEL-5 melanoma = system: SK-MEL-5 melanoma
SN12C renal = system: SN12C renal
SNB-19 CNS = system: SNB-19 CNS
SNB-75 CNS = system: SNB-75 CNS
SR leukemia = system: SR leukemia
SW-620 colon = system: SW-620 colon
T-47D breast = system: T-47D breast
TK-10 renal = system: TK-10 renal
U251 CNS = system: U251 CNS
UACC-257 melanoma = system: UACC-257 melanoma
UACC-62 melanoma = system: UACC-62 melanoma
UO-31 renal = system: UO-31 renal
HCT-116 colon = system: HCT-116 colon
HOP-62 NSCLC = system: HOP-62 NSCLC
HT29 colon = system: HT29 colon
NCI-H23 lung = system: NCI-H23 lung
SK-MEL-2 melanoma = system: SK-MEL-2 melanoma
SK-OV-3 ovarian = system: SK-OV-3 ovarian

Cn1c2ccc([N+](=O)[O-])cc2c(=O)c2c(O)cc(O)cc21
TGI (786-0 renal): 47 µM
TGI (A498 renal): > 100 µM
TGI (A549 NSCLC): > 100 µM
TGI (ACHN renal): > 100 µM
TGI (BT-549 breast): > 100 µM
TGI (CAKI-1 renal): > 100 µM
TGI (CCRF-CEM leukemia): > 100 µM
TGI (COLO 205 colon): > 100 µM
TGI (DU-145 prostate): > 100 µM
TGI (EKVX NSCLC): > 100 µM
TGI (HCC-2998 colon): > 100 µM
TGI (HCT-15 colon): > 100 µM
TGI (HL-60(TB) leukemia): > 100 µM
TGI (HOP-92 NSCLC): 96.3 µM
TGI (HS 578T breast): > 100 µM
TGI (IGROV1 ovarian): 45.3 µM
TGI (K-562 leukemia): > 100 µM
TGI (KM12 colon): > 100 µM
TGI (LOX IMVI melanoma): > 100 µM
TGI (M14 melanoma): > 100 µM
TGI (MALME-3M melanoma): 64.6 µM
TGI (MCF7 breast): > 100 µM
TGI (MDA-MB-231 breast): > 100 µM
TGI (MDA-MB-435): > 100 µM
TGI (MDA-N): > 100 µM
TGI (MOLT-4 leukemia): > 100 µM
TGI (NCI-H226 lung): > 100 µM
TGI (NCI-H460 lung): > 100 µM
TGI (NCI-H522 lung): 24 µM
TGI (NCI/ADR-RES ovarian): 55 µM
TGI (OVCAR-3 ovarian): > 100 µM
TGI (OVCAR-4 ovarian): > 100 µM
TGI (OVCAR-5 ovarian): > 100 µM
TGI (OVCAR-8 ovarian): 25.9 µM
TGI (PC-3 prostate): > 100 µM
TGI (RPMI-8226 leukemia): > 100 µM
TGI (RXF 393 renal): 52 µM
TGI (SF-268 CNS): 80.2 µM
TGI (SF-295 CNS): 33.8 µM
TGI (SF-539 CNS): 55.2 µM
TGI (SK-MEL-28 melanoma): > 100 µM
TGI (SK-MEL-5 melanoma): > 100 µM
TGI (SN12C renal): > 100 µM
TGI (SNB-19 CNS): > 100 µM
TGI (SNB-75 CNS): 34.7 µM
TGI (SR leukemia): > 100 µM
TGI (SW-620 colon): > 100 µM
TGI (T-47D breast): > 100 µM
TGI (TK-10 renal): > 100 µM
TGI (U251 CNS): 37.3 µM
TGI (UACC-257 melanoma): > 100 µM
TGI (UACC-62 melanoma): > 100 µM
TGI (UO-31 renal): > 100 µM

O=C(COC(=O)c1ccccc1)c1ccc(Br)cc1
TGI (A498 renal): 29.5 µM
TGI (A549 NSCLC): 40.5 µM
TGI (ACHN renal): 65.9 µM
TGI (BT-549 breast): 21.1 µM
TGI (CAKI-1 renal): 6.44 µM
TGI (CCRF-CEM leukemia): 25.9 µM
TGI (COLO 205 colon): 26.5 µM
TGI (DU-145 prostate): 64.6 µM
TGI (EKVX NSCLC): 28 µM
TGI (HCC-2998 colon): 26.9 µM
TGI (HCT-116 colon): 30.2 µM
TGI (HCT-15 colon): 35.1 µM
TGI (HL-60(TB) leukemia): 48.2 µM
TGI (HOP-62 NSCLC): 43.8 µM
TGI (HOP-92 NSCLC): 30.5 µM
TGI (HS 578T breast): 29.6 µM
TGI (HT29 colon): 46.3 µM
TGI (IGROV1 ovarian): 3.59 µM
TGI (K-562 leukemia): > 100 µM
TGI (KM12 colon): 37 µM
TGI (LOX IMVI melanoma): 11.2 µM
TGI (M14 melanoma): 31 µM
TGI (MALME-3M melanoma): 29.4 µM
TGI (MCF7 breast): 24.8 µM
TGI (MDA-MB-231 breast): 30.5 µM
TGI (MDA-MB-435): 20.4 µM
TGI (MDA-N): 16.4 µM
TGI (MOLT-4 leukemia): 15 µM
TGI (NCI-H23 lung): 49.2 µM
TGI (NCI-H460 lung): 37.2 µM
TGI (NCI/ADR-RES ovarian): 61.9 µM
TGI (OVCAR-3 ovarian): > 100 µM
TGI (OVCAR-5 ovarian): 22.8 µM
TGI (OVCAR-8 ovarian): > 100 µM
TGI (PC-3 prostate): 38.7 µM
TGI (RPMI-8226 leukemia): 16.9 µM
TGI (RXF 393 renal): 11.6 µM
TGI (SF-268 CNS): 34.4 µM
TGI (SF-295 CNS): 32 µM
TGI (SF-539 CNS): 28.4 µM
TGI (SK-MEL-2 melanoma): 28.2 µM
TGI (SK-MEL-28 melanoma): 32.1 µM
TGI (SK-MEL-5 melanoma): 27.5 µM
TGI (SK-OV-3 ovarian): 33.3 µM
TGI (SN12C renal): 29.4 µM
TGI (SNB-19 CNS): 30.5 µM
TGI (SNB-75 CNS): 29.9 µM
TGI (SR leukemia): 7.11 µM
TGI (SW-620 colon): 21.8 µM
TGI (T-47D breast): 62.6 µM
TGI (TK-10 renal): 10.8 µM
TGI (U251 CNS): 27.3 µM
TGI (UACC-257 melanoma): 28.8 µM
TGI (UACC-62 melanoma): 26.1 µM
TGI (UO-31 renal): 6.08 µM
